This note sets out measurements from EP0393529A1, “5,11-dihydro-6H-dipyrido [3,2-b:2',3'-e][1,4]diazepin-6-ones and their use in the prevention or treatment of AIDS” (Boehringer Ingelheim Pharmaceuticals Inc., priority 1989, dated 1990).

For assay [1], the target named is T1, HIV-1 reverse transcriptase (Human immunodeficiency virus type 1 group M subtype B, UniProt P03367).
T1 construct: Reverse transcriptase enzyme from the LAV strain; made in house; host or cells: E. coli strain JM109, clone pBRTprt1+ in vector pIBI21 (lac promoter)
Nature of the assay: Reverse Transcriptase (RT) Assay (RNA-dependent DNA polymerase activity, cell-free, 3H-dGTP incorporation). Format: biochemical. Particulars: read-out: RT Inhibition % @ 10µg/ml. As to the method: After removal of the insoluble debris by centrifugation, the protein is precipitated by the addition of 3 volumes of saturated aqueous ammonium sulfate.
The 2X concentrated stock reaction mixture is aliquoted and stored at -20°C. […] This enzyme assay has been adapted to a 96 well microtiter plate system, and has been previously described (6). […] Twenty µl of 0.12-0.5M EDTA are added to the first three wells of the microtiter plate.
This group serves as background polymerization which is subtracted from all other groups. Twenty-five µl of the 2X reaction mixture are added to all wells and the assay is allowed to incubate at room temperature for 60 minutes. […] The microtiter plate is incubated for 15 minutes at 4°C and the precipitate is fixed onto #30 glass fiber paper (Schleicher & Schuell) using a Skatron semi-automatic harvester. […] Each vial receives 2 mls of scintillation cocktail and is counted in a Beckman beta counter.

The test system of assay [2] is HTLV-IIIB strain of HIV-1. Nature of the assay: Human T-Cell Culture Assay (syncytia formation in C8166 cells). Format: cell-based. As to conditions: Human immunodeficiency virus 1, IIIB, 96 h, syncytia read four days after virus challenge, read-out: T-Cell Culture Assay(IC₅₀). The protocol: In order to confirm that compounds which are active in the RT Assay also have the ability to inhibit HIV replication in a living system, compounds according to the invention were also tested in the human T-Cell Culture Assay described below.
Assay Theory: Formation of syncytia is a feature of in vitro cultures of CD4+ T-cells infected with HIV-1. In this assay, T-cells are treated with a putative replication inhibiting compound and then infected with HIV-1. After incubation the culture is checked for the formation of syncytia. The absence or reduction is the number of syncytia is used as a measure of the test compound's ability to inhibit HIV replication.
Assay Method: The target cells, designated C8166, are a subclone of human lymphoma cells of T-cell origin and are established at an initial density of 5x10⁴ per 100 ul in RPMI 1640 (+ 10% fetal bovine serum) culture medium in 96 well flat bottom plates. A selected amount of test compound, dissolved in DMSO is included. After 24 hours, 50-100 TCID50's (the dose that results in induced effect in 50% of test cultures) of the HTLV-IIIB strain of HIV-1 (2) are innoculated into each culture. Control cultures receive compound or virus only. […] The percent inhibition by the test compound is determined by comparison with control values. […]

The structures appear in SMILES notation. Read-outs that look alike come from different tables or passages of the source.

Consider `CCN1C(=O)c2cccnc2N(CC)c2ncccc21` [Example 4, 5,11-Diethyl-5,11-dihydro-6H-dipyrido[3,2-b:2′,3′-e][1,4]diazepin-6-one], for which the inhibition at 10 µg/mL in assay [1] (10µg/ml compound) came to 98%. The IC50 in assay [2] is 190 µM. In the case of `CCCN1c2ncccc2NC(=O)c2cccnc21` [Example 2, 5,11-Dihydro-11-propyl-6H-dipyrido[3,2-b:2′,3′-e][1,4]diazepin-6-one], in assay [1] (10µg/ml compound), the inhibition at 10 µg/mL came out at 94%. On the same count and under the same terms, for `CCCN1c2ncccc2C(=O)N(C)c2cccnc21` [Example 3, 5,11-Dihydro-5-methyl-11-propyl-6H-dipyrido[3,2-b:2′,3′-e][1,4]diazepin-6-one] the value was 94%. In the case of `CCN1c2ncccc2C(=O)N(C)c2cccnc21` [Example 8, 5,11-Dihydro-11-ethyl-5-methyl-6H-dipyrido[3,2-b:2′,3′-e][1,4]diazepin-6-one], the inhibition at 10 µg/mL in assay [1] came out at 100%.
